Active and inactive are the calls of the source. For most assays here, no stated cut-off is given here; in the data, actives have a measured Kd and inactives only a lower limit.
Experiments:
[1] = target: T1, TGF-beta receptor type-1 (Homo sapiens, UniProt P36897)
T1 sequence (P36897 whole entry): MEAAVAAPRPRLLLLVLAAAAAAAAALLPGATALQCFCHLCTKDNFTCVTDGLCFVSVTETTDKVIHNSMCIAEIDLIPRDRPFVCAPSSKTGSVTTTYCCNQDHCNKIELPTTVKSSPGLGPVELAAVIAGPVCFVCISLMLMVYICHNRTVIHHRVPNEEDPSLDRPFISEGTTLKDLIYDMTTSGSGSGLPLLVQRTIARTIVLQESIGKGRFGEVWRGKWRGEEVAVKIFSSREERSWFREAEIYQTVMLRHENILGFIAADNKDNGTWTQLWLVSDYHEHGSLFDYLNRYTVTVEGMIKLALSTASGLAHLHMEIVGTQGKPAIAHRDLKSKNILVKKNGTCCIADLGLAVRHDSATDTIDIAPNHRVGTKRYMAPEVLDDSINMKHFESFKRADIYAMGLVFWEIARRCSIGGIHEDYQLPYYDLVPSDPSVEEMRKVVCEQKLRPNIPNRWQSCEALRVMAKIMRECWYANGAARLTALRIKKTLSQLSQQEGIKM

[2] = target: T2, cGMP-dependent protein kinase 1 (Homo sapiens, UniProt Q13976)
T2 sequence (Q13976 whole entry): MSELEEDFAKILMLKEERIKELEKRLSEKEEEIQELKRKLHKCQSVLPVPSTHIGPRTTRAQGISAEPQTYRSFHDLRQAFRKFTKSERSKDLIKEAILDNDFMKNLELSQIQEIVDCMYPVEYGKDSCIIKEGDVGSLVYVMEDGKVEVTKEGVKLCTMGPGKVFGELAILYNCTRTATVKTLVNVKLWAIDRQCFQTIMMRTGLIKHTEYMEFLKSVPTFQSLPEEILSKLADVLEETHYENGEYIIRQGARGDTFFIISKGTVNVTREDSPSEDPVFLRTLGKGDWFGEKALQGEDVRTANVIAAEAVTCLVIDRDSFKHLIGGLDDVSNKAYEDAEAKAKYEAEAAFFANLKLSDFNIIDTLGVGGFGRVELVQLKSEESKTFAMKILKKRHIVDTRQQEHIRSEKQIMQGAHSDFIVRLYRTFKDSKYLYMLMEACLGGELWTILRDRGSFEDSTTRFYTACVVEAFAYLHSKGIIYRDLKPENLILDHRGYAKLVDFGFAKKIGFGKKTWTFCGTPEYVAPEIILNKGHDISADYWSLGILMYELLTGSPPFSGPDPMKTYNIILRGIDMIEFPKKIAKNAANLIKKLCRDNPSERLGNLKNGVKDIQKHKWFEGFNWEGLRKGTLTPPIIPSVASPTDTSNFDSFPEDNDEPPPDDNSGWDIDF

[3] = target: 26S proteasome regulatory subunit 6B (Homo sapiens, UniProt P43686)
Chain of 26S proteasome regulatory subunit 6B (P43686 whole entry): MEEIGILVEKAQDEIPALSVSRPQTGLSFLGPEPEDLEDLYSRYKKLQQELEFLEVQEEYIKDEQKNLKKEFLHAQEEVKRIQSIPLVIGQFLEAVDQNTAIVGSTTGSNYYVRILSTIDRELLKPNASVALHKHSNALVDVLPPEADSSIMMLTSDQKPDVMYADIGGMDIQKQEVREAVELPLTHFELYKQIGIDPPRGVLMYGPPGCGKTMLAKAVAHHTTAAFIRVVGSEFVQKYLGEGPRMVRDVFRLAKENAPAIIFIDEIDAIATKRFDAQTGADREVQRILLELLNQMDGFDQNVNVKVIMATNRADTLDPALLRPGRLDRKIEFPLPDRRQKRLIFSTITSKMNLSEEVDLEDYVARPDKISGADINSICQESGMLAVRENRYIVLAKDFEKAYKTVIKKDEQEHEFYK

[4] = target: Mitogen-activated protein kinase kinase kinase 20 (Homo sapiens, UniProt Q9NYL2)
Chain of Mitogen-activated protein kinase kinase kinase 20 (Q9NYL2 whole entry, canonical isoform): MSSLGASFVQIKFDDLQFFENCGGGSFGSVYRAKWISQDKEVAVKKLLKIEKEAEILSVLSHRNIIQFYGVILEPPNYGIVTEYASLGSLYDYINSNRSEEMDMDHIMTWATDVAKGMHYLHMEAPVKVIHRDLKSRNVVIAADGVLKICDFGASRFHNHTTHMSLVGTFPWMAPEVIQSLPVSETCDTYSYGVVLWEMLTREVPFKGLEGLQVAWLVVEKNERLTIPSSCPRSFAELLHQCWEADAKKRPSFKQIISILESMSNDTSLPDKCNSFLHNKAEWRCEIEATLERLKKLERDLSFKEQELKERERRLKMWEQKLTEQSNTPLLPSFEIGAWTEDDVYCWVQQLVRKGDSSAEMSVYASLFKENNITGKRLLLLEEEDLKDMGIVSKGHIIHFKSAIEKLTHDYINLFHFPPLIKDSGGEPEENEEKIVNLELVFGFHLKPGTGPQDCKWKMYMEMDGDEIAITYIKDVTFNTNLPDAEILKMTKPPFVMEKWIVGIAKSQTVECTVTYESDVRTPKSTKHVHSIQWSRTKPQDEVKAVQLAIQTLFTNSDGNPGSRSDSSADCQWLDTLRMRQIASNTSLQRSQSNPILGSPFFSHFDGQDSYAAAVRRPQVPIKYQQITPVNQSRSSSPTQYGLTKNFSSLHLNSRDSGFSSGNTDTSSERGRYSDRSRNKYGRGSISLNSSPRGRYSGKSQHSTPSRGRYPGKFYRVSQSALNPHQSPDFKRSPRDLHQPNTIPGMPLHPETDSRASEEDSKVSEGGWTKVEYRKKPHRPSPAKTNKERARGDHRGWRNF

[5] = target: Casein kinase I isoform alpha (Homo sapiens, UniProt P48729)
Chain of Casein kinase I isoform alpha (P48729 whole entry, canonical isoform): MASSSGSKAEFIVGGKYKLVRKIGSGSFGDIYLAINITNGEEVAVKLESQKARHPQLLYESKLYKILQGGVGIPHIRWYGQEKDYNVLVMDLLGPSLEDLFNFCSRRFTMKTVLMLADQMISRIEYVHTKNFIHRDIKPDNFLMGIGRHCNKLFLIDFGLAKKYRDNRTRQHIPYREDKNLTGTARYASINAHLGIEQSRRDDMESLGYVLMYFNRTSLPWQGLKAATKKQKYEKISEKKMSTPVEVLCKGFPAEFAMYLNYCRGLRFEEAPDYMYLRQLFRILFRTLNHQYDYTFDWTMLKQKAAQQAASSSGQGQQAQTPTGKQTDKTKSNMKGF

[6] = target: T3, DNA replication licensing factor MCM4 (Homo sapiens, UniProt P33991)
T3 sequence (P33991 whole entry): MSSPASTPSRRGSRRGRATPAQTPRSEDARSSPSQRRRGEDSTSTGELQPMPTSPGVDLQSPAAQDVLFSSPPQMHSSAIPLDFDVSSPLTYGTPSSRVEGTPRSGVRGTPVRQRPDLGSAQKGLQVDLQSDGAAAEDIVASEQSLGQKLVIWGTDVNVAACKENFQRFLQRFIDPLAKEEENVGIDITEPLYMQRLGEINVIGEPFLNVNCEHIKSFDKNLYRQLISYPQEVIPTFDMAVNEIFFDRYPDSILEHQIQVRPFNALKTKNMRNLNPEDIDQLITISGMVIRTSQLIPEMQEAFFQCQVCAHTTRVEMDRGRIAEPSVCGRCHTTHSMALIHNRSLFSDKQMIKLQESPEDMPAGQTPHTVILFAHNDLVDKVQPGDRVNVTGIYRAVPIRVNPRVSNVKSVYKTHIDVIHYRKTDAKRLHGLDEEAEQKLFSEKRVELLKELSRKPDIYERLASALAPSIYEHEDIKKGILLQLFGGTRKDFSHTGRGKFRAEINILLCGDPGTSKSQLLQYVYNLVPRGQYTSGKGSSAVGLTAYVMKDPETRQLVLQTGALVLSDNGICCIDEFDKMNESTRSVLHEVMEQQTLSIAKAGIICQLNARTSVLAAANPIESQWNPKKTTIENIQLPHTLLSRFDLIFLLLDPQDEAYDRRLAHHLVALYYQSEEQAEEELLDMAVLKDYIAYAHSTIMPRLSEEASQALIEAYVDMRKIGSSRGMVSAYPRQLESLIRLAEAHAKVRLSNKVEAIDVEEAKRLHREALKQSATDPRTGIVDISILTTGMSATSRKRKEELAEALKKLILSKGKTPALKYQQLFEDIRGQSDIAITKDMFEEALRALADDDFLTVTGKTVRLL

[7] = target: T4, Non-receptor tyrosine-protein kinase TNK1 (Homo sapiens, UniProt Q13470)
T4 sequence (Q13470 whole entry): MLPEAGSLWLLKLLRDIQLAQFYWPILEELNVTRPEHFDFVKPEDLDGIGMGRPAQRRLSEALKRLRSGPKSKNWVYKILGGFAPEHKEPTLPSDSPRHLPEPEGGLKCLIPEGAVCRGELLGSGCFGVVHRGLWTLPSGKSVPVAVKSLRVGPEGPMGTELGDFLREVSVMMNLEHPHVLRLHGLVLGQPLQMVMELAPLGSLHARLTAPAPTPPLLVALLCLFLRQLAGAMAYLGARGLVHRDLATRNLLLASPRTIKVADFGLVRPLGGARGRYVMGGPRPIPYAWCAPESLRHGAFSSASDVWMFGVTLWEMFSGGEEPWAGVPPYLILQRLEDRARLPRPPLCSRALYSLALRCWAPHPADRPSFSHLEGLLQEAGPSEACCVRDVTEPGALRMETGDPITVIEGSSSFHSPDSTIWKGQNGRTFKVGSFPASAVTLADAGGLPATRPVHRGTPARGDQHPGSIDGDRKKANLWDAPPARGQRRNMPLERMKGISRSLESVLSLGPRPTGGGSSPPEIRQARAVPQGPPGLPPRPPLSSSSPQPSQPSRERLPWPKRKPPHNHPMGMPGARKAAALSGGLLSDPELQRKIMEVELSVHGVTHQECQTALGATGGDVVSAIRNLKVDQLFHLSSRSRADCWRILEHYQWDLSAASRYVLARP

Structure (SMILES) | Kd [1] | Kd [2] | Kd [3] | Kd [4] | Kd [5] | Kd [6] | Kd [7]
O=C(NOC[C@H](O)CO)c1ccc(F)c(F)c1Nc1ccc(I)cc1F [MIRDAMETINIB] | > 30 µM (inactive) | > 30 µM (inactive) | > 30 µM (inactive) | > 30 µM (inactive) | > 30 µM (inactive) | > 30 µM (inactive) | > 30 µM (inactive)
COc1cccc2cc(-c3nc([C@H]4CC[C@H](C(=O)O)CC4)n4ncnc(N)c34)[nH]c12 [OSI-027] | 0.78 µM (active) | > 30 µM (inactive) | > 30 µM (inactive) | > 30 µM (inactive) | > 30 µM (inactive) | > 30 µM (inactive) | > 30 µM (inactive)
O=C(Nc1ccc(OC(F)(F)F)cc1)c1sccc1NCc1ccnc2ccccc12 [OSI-930] | > 30 µM (inactive) | > 30 µM (inactive) | > 30 µM (inactive) | 7.73 µM (active) | > 30 µM (inactive) | > 30 µM (inactive) | > 30 µM (inactive)
C=CC(=O)Nc1cc(Nc2nccc(-c3cn(C)c4ccccc34)n2)c(OC)cc1N(C)CCN(C)C [OSIMERTINIB] | > 30 µM (inactive) | > 30 µM (inactive) | > 30 µM (inactive) | > 30 µM (inactive) | > 30 µM (inactive) | > 30 µM (inactive) | > 30 µM (inactive)
FC(F)(F)c1ccc(CNc2ccc(Cc3c[nH]c4ncc(Cl)cc34)cn2)cn1 [PEXIDARTINIB] | > 30 µM (inactive) | > 30 µM (inactive) | > 30 µM (inactive) | > 30 µM (inactive) | > 30 µM (inactive) | > 30 µM (inactive) | > 30 µM (inactive)
O=C(NC[C@H](O)CO)c1ccncc1Nc1ccc(I)cc1F [PIMASERTIB] | > 30 µM (inactive) | > 30 µM (inactive) | > 30 µM (inactive) | > 30 µM (inactive) | > 30 µM (inactive) | > 30 µM (inactive) | > 30 µM (inactive)
COc1cc(F)c(F)c(Nc2ccc(I)cc2F)c1NS(=O)(=O)C1(C[C@H](O)CO)CC1 [REFAMETINIB] | > 30 µM (inactive) | > 30 µM (inactive) | > 30 µM (inactive) | > 30 µM (inactive) | > 30 µM (inactive) | > 30 µM (inactive) | > 30 µM (inactive)
COCCN1CCN(Cc2ccc(-c3n[nH]c4c3C(=O)c3c(NC(=O)NN5CCOCC5)cccc3-4)cc2)CC1 [RGB-286638] | > 30 µM (inactive) | > 30 µM (inactive) | > 30 µM (inactive) | 1.11 µM (active) | 8.07 µM (active) | > 30 µM (inactive) | > 30 µM (inactive)
C=CC(=O)Nc1cccc(Nc2nc(Nc3ccc(N4CCN(C(C)=O)CC4)cc3OC)ncc2C(F)(F)F)c1 [ROCILETINIB] | > 30 µM (inactive) | > 30 µM (inactive) | > 30 µM (inactive) | > 30 µM (inactive) | > 30 µM (inactive) | > 30 µM (inactive) | 0.289 µM (active)
O=C(O)c1ccc2c(c1)nc(Nc1cccc(Cl)c1)c1ccncc12 [SILMITASERTIB] | > 30 µM (inactive) | > 30 µM (inactive) | > 30 µM (inactive) | > 30 µM (inactive) | > 30 µM (inactive) | > 30 µM (inactive) | > 30 µM (inactive)
CN1CCN(c2nc(C3=C(c4c[nH]c5ccccc45)C(=O)NC3=O)c3ccccc3n2)CC1 [SOTRASTAURIN] | > 30 µM (inactive) | > 30 µM (inactive) | > 30 µM (inactive) | > 30 µM (inactive) | > 30 µM (inactive) | > 30 µM (inactive) | > 30 µM (inactive)
CC(C)(O)CC(=O)NCCn1ccc2ncnc(Nc3ccc(Oc4cccc(C(F)(F)F)c4)c(Cl)c3)c21 [TAK-285] | > 30 µM (inactive) | > 30 µM (inactive) | > 30 µM (inactive) | > 30 µM (inactive) | > 30 µM (inactive) | > 30 µM (inactive) | > 30 µM (inactive)
Cc1cc(C(=O)Nc2cc(Oc3ccc4nc(NC(=O)C5CC5)cn4n3)ccc2C)n(C)n1 [TAK-593] | > 30 µM (inactive) | > 30 µM (inactive) | > 30 µM (inactive) | > 30 µM (inactive) | > 30 µM (inactive) | > 30 µM (inactive) | > 30 µM (inactive)
Cn1c(=O)c(F)c(Nc2ccc(I)cc2F)c2c(=O)n(C[C@@H](O)CO)cnc21 [TAK-733] | > 30 µM (inactive) | > 30 µM (inactive) | > 30 µM (inactive) | > 30 µM (inactive) | > 30 µM (inactive) | > 30 µM (inactive) | > 30 µM (inactive)
O[C@H]1CC[C@H](Nc2ncc3nc(Nc4c(F)cc(F)cc4F)n([C@H]4CCOC4)c3n2)CC1 [TANZISERTIB] | > 30 µM (inactive) | > 30 µM (inactive) | > 30 µM (inactive) | > 30 µM (inactive) | > 30 µM (inactive) | > 30 µM (inactive) | > 30 µM (inactive)
CNC(=O)c1cc(COc2nnc(Nc3ccc(Cl)cc3)c3ccoc23)ccn1 [TELATINIB] | > 30 µM (inactive) | > 30 µM (inactive) | > 30 µM (inactive) | 0.477 µM | > 30 µM (inactive) | > 30 µM (inactive) | > 30 µM (inactive)
Cc1cc(-c2cc(OC(=O)c3ccccc3)ccc2Cl)cc2nnc(Nc3ccc(OCCN4CCCC4)cc3)nc12 [TG100-801] | > 30 µM (inactive) | > 30 µM (inactive) | > 30 µM (inactive) | > 30 µM (inactive) | > 30 µM (inactive) | > 30 µM (inactive) | > 30 µM (inactive)
C[C@@H]1COC(Nc2ccc3ncnc(Nc4ccc(OCc5nccs5)c(Cl)c4)c3c2)=N1 [VARLITINIB] | > 30 µM (inactive) | > 30 µM (inactive) | > 30 µM (inactive) | > 30 µM (inactive) | > 30 µM (inactive) | > 30 µM (inactive) | > 30 µM (inactive)
